Experimental data: US11542234B2, “2-alkoxy-6-[18F]fluoronicotinoyl substituted lys-c(O)-glu derivatives as efficient probes for imaging of PSMA expressing tissues” (Universität zu Köln, priority 2018, dated 2023)
Like-named read-outs stand apart in the source and are kept apart here.

Experiments:
[1] = tested on: PSMA^+ LNCaP C4-2 cells; experiment: Cellular uptake in PSMA positive LNCaP C4-2 cells; assay type: cell-based; conditions: for cellular uptake under inhibition with 2-PMPA: in the presence of 2-PMPA (100 μM/well)
Procedure: (§1) The PSMA specificity of the tracer uptake in LNCaP C4-2 was confirmed by complete inhibition with 2-PMPA (≤0.1% ID/10^5 cells). The enrichment of both tracers in PSMA^− PC3 cells was negligible (≤0.1% ID/10^5 cells).
(§2) PSMA^− PC-3 cells were cultured in RPMI-1640 medium supplemented with FBS (10%) and penicillin/streptomycin (1%). PSMA* LNCaP C4-2 cells were cultured in a mixture of DMEM: Ham's F-12K (Kaighn's) mediums (4:1) supplemented with FBS (5%), NaHCO3(3 g/L), insulin (5 μg/mL), triiodothyronine ([…]), transferrin (5 μg/mL), biotin (0.25 μg/ml) and adenine (25 μg/mL). Both cell lines were grown in 75 mL flasks containing 10 mL of the culture medium in a humidified atmosphere of 5% CO2/95% air at 37° C. for 4-5 days until they reached 80-90% confluency. Cells were seeded into 12-well plates (1×10^5 cells/well containing 1 mL medium) 24 h before the beginning of the cellular uptake experiments.
2-(Phosphonomethyl)pentanedioic acid (2-PMPA; 100 μM/well) was used for blocking studies. Thereafter, the cells were washed two times with medium (1 mL), trypsinized, harvested and the accumulated radioactivity was measured in a gamma counter (Wizard 1470, PerkinElmer, Massachusetts, USA). The cellular uptake of the novel PSMA-selective candidates and [^18F]DCFPyL obtained in experiments performed in parallel were compared. Each cellular uptake experiment was carried out in triplicate.

[2] = tested on: PSMA^− PC-3 cells; experiment: Cellular uptake in PSMA negative PC3 cells; assay type: cell-based
Procedure: as §1, §2
The corresponding PSMA specific PET probe was added to the cells (100-150 kBq/well) and the cells were incubated at 37° C. for 1 and 2 h. 2-(Phosphonomethyl)pentanedioic acid (2-PMPA; 100 μM/well) was used for blocking studies. Thereafter, the cells were washed two times with medium (1 mL), trypsinized, harvested and the accumulated radioactivity was measured in a gamma counter (Wizard 1470, PerkinElmer, Massachusetts, USA). […]

[3] = target: T1, PSMA (Rattus norvegicus, UniProt P70627); experiment: PET study of PSMA-specific tracers in healthy rats; assay type: in vivo; conditions: for Bone % ID / Liver % ID / SCG signal-to-noise ratio / SCG % ID / signal-to-noise ratio (SCG), printed in text with: PET 60-120 min after injection; for SCG signal-to-noise ratio: background dorsal from cervical vertebral column
T1 construct: ganglia as natural PSMA-expressing tissues remain constant over a long time; from tissue; host or cells: healthy Long Evans rats in vivo
Text: Ganglia represent an ideal tissue for the evaluation of PSMA binding imaging probes. Having a size of 1-2 mm these structures are sufficiently small to imitate metastases in a very early stage. Ganglionic PSMA is expressed by satellite glial cells, which envelop the neuronal cell bodies of the trigeminal ganglion,^[25] spinal dorsal root ganglia and ganglia of the autonomic nervous system.^[26] […] Rat PSMA comprises 752 amino acids (vs. 750 in humans), and has about 91% homology to the human PSMA. Importantly, all amino acid residues of the active site are essentially the same as those in the human homologue with the only exception of Gly^548 in the human and Ser^548 in the rat protein, respectively^[28]
Conditions: Uptake of different PSMA-specific tracers in healthy rats measured by PET. Conditions: PET scanner (Focus 220, Siemens); 57-71 MBq tracer was injected. PET scans started 60 min after injection and continued for 60 min. % ID was determined by dividing each image by the injected dose and multiplying it by body weight. […] Background activity for calculation of signal-to-noise ratio was measured dorsal from the cervical vertebral column with a 390 mm^3 VOI.
Animals: Experiments were carried out in accordance with the EU directive 2010/63/EU for animal experiments and the German Animal Welfare Act (TierSchG, 2006), and were approved by regional authorities (LANUV NRW). Long Evans rats (250-590 g body weight) were used for this study. Rats were housed in pairs in individually ventilated cages (NexGen EcoFlo, cages RAT1800 with 1805 cm^2 floor space and 41 cm height; Allentown Inc., Allentown, N.J., USA) under controlled ambient conditions (22±1° C. and 55±5% relative humidity) on an inversed 12 hour light/dark schedule (lights on 9:00 p.m.-9:00 a.m.). Food and water were available at all times. Three rats received two, and one rat received three different tracers. The other seven rats were measured with one tracer only. Each tracer was measured in three animals.
PET-imaging: Prior to PET measurements with PET probes, animals were anesthetized (initial dosage: 5% isoflurane in 02/air (3:7), then reduction to 2%), and a catheter for tracer injection was inserted into the lateral tail vein. Rats were placed on an animal holder (Medres, Cologne, Germany), and fixed with a tooth bar in a respiratory mask. Dynamic PET scans in a list mode were performed using a Focus 220 micro PET scanner (CTI-Siemens, Germany) with a resolution at a center of field of view of 1.4 mm. Data acquisition started with tracer injection (66±14 MBq in 0.5 mL i.v.), continued for 120 min and was followed by a 10 min transmission scan using a ^57Co point source. For blocking studies 2-(phosphonomethyl)pentanedioic acid (2-PMPA; 23 mg/kg) was added directly to a radiotracer solution. Breathing rate was monitored and kept around 60/min by adjusting isoflurane concentration (1.5-2.5%). Body temperature was maintained at 37° C. by a feedback-controlled system. Following Fourier rebinning, data were reconstructed using an iterative OSEM3D/MAP procedure78 including attenuation and decay correction in two different ways: 1) 28 frames (2×1 min; 2×2 min, 6×4 min, 18×5 min) for compilation of regional time activity curves; 2) 4 frames (4×30 min) for visual display. Resulting voxel sizes were always 0.38×0.38×0.79 mm.
Data analysis was performed using the software VINCI.79 Images were Gauss filtered (1 mm FWHM), and % ID was determined by dividing each image by the injected dose and multiplying the result by body weight times 100. Mean % ID values were extracted from each of the 28 frames and plotted over time.

[4] = target: T2, PSMA (Homo sapiens, UniProt Q04609); experiment: Pilot PET/CT study in 10 patients, comparison with [68Ga]Ga-PSMA-HBED-CC; assay type: in vivo
T2 construct: from tissue; host or cells: patients with prostate cancer or biochemical recurrence, in vivo PET/CT
Procedure: Owing to the favorable imaging properties of 2-MeO-[^18F]PSMA in rats a small pilot study with this tracer in 10 patients was conducted. All patients were examined with both [^68Ga]Ga-PSMA-HBED-CC and 2-MeO-[^18F]PSMA PET CT. In each case, both PET/CT scans were carried out within three weeks. […] In four patients, at least one additional PSMA-positive lesion using 2-MeO-[^18F]PSMA compared to the corresponding [^68Ga]Ga-PSMA-HBED-CC image was identified (FIG. 6B). In one patient inconspicuous in the [^68Ga]Ga-PSMA-HBED-CC scan, a PSMA-positive lesion was discovered by 2-MeO-[^18F]PSMA PET/CT (FIG. 6C).
(§3) The study was conducted in accordance with the Institutional Review Board. All patients gave written informed consent to PET imaging and inclusion of their data in a retrospective analysis. All procedures were performed in compliance with the regulations of the responsible local authorities (District Administration of Cologne, Germany).
(§4) All measurements with [^68Ga]Ga-PSMA-HBED-CC and [^18F]-2-MeO-PSMA were carried out as described in the literature.^[14a, 15]

[5] = target: T2, PSMA; experiment: PSMA-PET imaging of patients with biochemical recurrence of prostate cancer; assay type: in vivo; conditions: 124 patients with biochemical recurrence (BCR) of PCa
Procedure: In the subsequent larger study, 124 patients with biochemical recurrence (BCR) of PCa were examined.
as §3, §4

[6] = meta-analysis of data of 251 patients, detecting recurrent PCa; cited from earlier work
[7] = target: T2, PSMA; conditions: determined earlier, for comparison; cited from earlier work
[8] = 2 h incubation, 4-MeO-[18F]PSMA and [18F]DCFPyL in parallel (FIG. 4B)
[9] = 4 h incubation, 4-MeO-[18F]PSMA and [18F]DCFPyL in parallel (FIG. 4B)
[10] = 2 h incubation, 2-MeO-[18F]PSMA and [18F]DCFPyL in parallel (FIG. 4A)
[11] = 4 h incubation, 2-MeO-[18F]PSMA and [18F]DCFPyL in parallel (FIG. 4A)
[12] = co-application of 2-PMPA (23 mg/kg)

T2 sequence (Q04609 whole entry): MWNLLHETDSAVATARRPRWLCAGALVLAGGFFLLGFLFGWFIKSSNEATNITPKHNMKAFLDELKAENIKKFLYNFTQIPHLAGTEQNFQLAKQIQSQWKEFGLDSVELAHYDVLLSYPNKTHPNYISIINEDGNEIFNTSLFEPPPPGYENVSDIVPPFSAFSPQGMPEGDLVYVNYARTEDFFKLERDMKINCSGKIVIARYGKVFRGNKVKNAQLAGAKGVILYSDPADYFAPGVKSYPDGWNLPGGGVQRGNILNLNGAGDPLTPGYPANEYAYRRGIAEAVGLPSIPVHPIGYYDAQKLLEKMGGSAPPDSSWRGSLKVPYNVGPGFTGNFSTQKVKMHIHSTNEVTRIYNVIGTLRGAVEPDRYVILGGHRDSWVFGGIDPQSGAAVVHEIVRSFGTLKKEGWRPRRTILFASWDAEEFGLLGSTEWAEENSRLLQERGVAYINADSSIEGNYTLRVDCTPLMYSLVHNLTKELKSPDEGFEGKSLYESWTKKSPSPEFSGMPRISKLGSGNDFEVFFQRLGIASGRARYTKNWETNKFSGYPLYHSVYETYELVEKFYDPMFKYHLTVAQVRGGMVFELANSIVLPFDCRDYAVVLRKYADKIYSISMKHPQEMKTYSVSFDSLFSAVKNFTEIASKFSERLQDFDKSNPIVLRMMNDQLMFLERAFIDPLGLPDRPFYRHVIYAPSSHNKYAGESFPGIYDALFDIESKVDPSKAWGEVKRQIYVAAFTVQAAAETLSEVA
T1 sequence (P70627 whole entry): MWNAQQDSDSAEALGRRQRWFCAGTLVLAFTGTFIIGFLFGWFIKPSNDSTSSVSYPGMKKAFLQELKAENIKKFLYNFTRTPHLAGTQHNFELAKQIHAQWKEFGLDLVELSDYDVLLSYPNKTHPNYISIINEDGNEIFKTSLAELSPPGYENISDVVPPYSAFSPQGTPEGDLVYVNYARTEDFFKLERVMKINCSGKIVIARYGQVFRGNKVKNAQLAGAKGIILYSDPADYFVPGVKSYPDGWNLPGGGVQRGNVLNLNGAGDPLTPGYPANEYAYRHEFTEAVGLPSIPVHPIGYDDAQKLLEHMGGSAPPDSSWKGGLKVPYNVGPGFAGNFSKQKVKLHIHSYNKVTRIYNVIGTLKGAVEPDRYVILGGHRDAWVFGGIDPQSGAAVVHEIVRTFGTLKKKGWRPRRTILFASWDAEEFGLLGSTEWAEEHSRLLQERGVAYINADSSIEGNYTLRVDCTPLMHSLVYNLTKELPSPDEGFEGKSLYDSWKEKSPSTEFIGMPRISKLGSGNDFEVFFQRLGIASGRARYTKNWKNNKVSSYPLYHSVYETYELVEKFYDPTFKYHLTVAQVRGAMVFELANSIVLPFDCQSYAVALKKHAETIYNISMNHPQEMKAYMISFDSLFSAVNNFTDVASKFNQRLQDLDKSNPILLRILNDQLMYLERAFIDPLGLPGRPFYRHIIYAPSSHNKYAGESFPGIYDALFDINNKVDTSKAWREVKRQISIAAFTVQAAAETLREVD

Row | Bone % ID [3] | Liver % ID [3] | SCG signal-to-noise ratio [3] | SCG % ID ([3]; superior cervical ganglion) | SMILES | cellular uptake [1, 8] | cellular uptake [1, 9] | cellular uptake under inhibition with 2-PMPA [1] | cellular uptake [1, 10] | cellular uptake [1, 11] | signal-to-noise ratio (SCG), printed in text with [3] | other results
1 | 19.2±2.1 % ID | 29.0±7.2 % ID | 4.6±1.3 | 14.4±2.6 % ID | COc1cc([18F])ncc1C(=O)NCCCC[C@H](NC(=O)N[C@@H](CCC(=O)O)C(=O)O)C(=O)O [4-MeO-[^18F]PSMA] | 0.79±0.04 % ID/10^5 cells | 0.90±0.04 % ID/10^5 cells | completely blocked |  |  |  | enrichment in PSMA^− PC3 cells [2]: very low
2 | 12.4 ± 4.3 % ID | 65.3 ± 21.7 % ID |  | 20.2 ± 5.8 % ID | O=C(O)CC[C@H](NC(=O)N[C@@H](CCCCNC(=O)c1ccc([18F])nc1)C(=O)O)C(=O)O [[^18F]DCFPyL] | 1.53±0.03 % ID/10^5 cells | 3.16±0.01 % ID/10^5 cells |  | 1.55±0.05 % ID/10^5 cells | 3.1±0.03 % ID/10^5 cells |  | uptake in the ganglion of the trigeminal nerve ([3]; 60-120 min after injection): 37.9±9.9 % ID; Liver % ID [3, 12]: remained at the same level; SCG % ID [3, 12]: 4.6±1.8 % ID
3 |  |  | 8.2 ± 1.7 | 31.3±10.5 % ID | COc1nc([18F])ccc1C(=O)NCCCC[C@H](NC(=O)N[C@@H](CCC(=O)O)C(=O)O)C(=O)O [2-MeO-[^18F]PSMA] |  |  | ≤ 0.1 % ID/10^5 cells | 2.03±0.03 % ID/10^5 cells | 3.31±0.01 % ID/10^5 cells | 8.2 ± 1.7 | patients inconspicuous in the [68Ga]Ga-PSMA-HBED-CC scan in whom a PSMA-positive lesion was discovered [4]: one; patients with at least one additional PSMA-positive lesion compared to the corresponding [68Ga]Ga-PSMA-HBED-CC image ([4]; both PET/CT scans within three weeks): four; sensitivity [5]: 83.0%
4 | 18.5 ± 0.6 % ID | 47.0 ± 10.3 % ID | 4.5±0.1 | 41.0±3.4 % ID | O=C([O-])CN(CCN(CC(=O)[O-])Cc1cc(CCC(=O)NCCCCCC(=O)NCCCC[C@H](NC(=O)N[C@@H](CCC(=O)O)C(=O)O)C(=O)O)ccc1[O-])Cc1cc(CCC(=O)O)ccc1[O-].[68Ga+3].[OH3+] [[^68Ga]Ga-PSMA-HBED-CC] |  |  |  |  |  |  | SCG signal-to-noise ratio ([3]; listed as [^68Ga]PSMA-HBED-CC): 4.5 ± 0.1; SCG % ID ([3]; superior cervical ganglion, listed as [^68Ga]PSMA-HBED-CC): 41.0 ± 3.4 % ID; sensitivity [7]: 74.2%

The remaining lines, values behind:

Row | SMILES | Bone % ID [3] | Liver % ID [3] | SCG signal-to-noise ratio [3] | SCG % ID ([3]; superior cervical ganglion) | cellular uptake [1, 8] | cellular uptake [1, 9] | cellular uptake under inhibition with 2-PMPA [1] | cellular uptake [1, 10] | cellular uptake [1, 11] | signal-to-noise ratio (SCG), printed in text with [3] | other results
5 | O=C(O)CC[C@H](NC(=O)N[C@@H](CCCCNC(=O)[C@H](Cc1ccc2ccccc2c1)NC(=O)c1ccc(CNC(=O)[C@H](CCC(=O)O)NC(=O)[C@H](CCC(=O)O)NC(=O)c2ccc([18F])nc2)cc1)C(=O)O)C(=O)O [[^18F]PSMA-1007] | 33.2±9.5 % ID | 50.7 ± 4.3 % ID | 6.2 ± 1.9 |  |  |  |  |  |  | 6.2 ± 1.9 | 
6 | N[C@]1(C(=O)O)C[C@@H]([18F])C1 [[^18F]FACBC, anti-1-amino-3-[^18F]fluorocyclobutane-1-carboxylic acid] |  |  |  |  |  |  |  |  |  |  | sensitivity [6]: 87%; specificity [6]: 66%
